Results: patent US9364496B2 (ONCOGENEX TECHNOLOGIES INC., priority 2013, dated 2016)
“And” between values parts separate entries of the source, which are not always exact repeats. Equal entries are not always repeated. Marks after values point to notes of the source that are not given here. Oligonucleotides are written 5' to 3', each unit as a sugar letter and its base; * is a phosphorothioate linkage, no mark a phosphodiester; rarer units and linkages stand in square brackets, end groups in braces. Plain capitals give the bases only. e = 2'-O-(2-methoxyethyl) (MOE); [5mC] = 5-methylcytosine; d = 2'-deoxy (DNA)

Legend:
renal cancer = assay type: in vivo, human; conditions: each group; loading doses then custirsen with a chemotherapeutic agent
Text: At least 50 renal cancer patients are separated into two groups.

[1] = Phase I dose-escalation Study OGX-011-01, custirsen with neoadjuvant hormone therapy, prostate cancer patients; conditions: 40 mg to 640 mg custirsen, repeated doses with neoadjuvant hormone therapy
bladder cancer = assay type: in vivo, human; conditions: each group; loading doses then custirsen with a chemotherapeutic agent
Text: At least 50 bladder cancer patients are separated into two groups.

[2] = test system: RPMI 8226 (human myeloma) xenograft; test: In vivo activity of custirsen (TV-1011), different doses and regimens with Bortezomib, RPMI 8226 xenograft (Example 15); conditions: for volume / weight / % of baseline (weight) / Δ % (weight) / Δ weight: group 8: TV-1011 30 mg/kg qd*5, 40 mg/kg biwk
Procedure: 120 CB.17 SCID female mice, 4-6 weeks old, 16-20 grams, obtained from Harlan animal breeding center.
Cells (originated from ATCC) were cultured on RPMI medium. Cell suspension was centrifuged and resuspended in 50% Matrigel/HBSS to a final concentration of 7×10^7 cells/ml. The suspension was implanted s.c. in the right flank of the anesthetized mouse at a volume of 100 μl.
Seven ml saline were added to the original vial containing 3.5 mg powder resulting in 0.5 mg/ml. Three ml of this solution were added to 27 ml saline to receive 0.05 mg/ml concentration. […] 28.5 ml of 4 mg/ml were added to 9.5 saline to receive 3 mg/ml.
Mice were implanted subcutaneously, with 7×10^6 RPMI 8226 cells/mouse (in 50% Martigel/HBSS) on Day 0. On day 21, mice were sorted by the optimal average tumor volume (˜130 mm3) and were allocated into eight groups of 10 mice each.
The treatment started on day 21 post implant, 0.2 ml per 20 grams v/w.
[formula] The analysis of weight gain and tumor volume progression was made using one-way ANOVA followed by Tukey post-hoc comparisons.

[3] = in vivo
[4] = TV-1011 alone 30 mg/kg ip qd*5, then 40 mg/kg biwk, day 62
[5] = Day 21 (baseline), group Mean, n 10
[6] = Day 21 (baseline), individual animals
[7] = Day 28 vs Day 21, group Mean, n 10
[8] = Day 28 vs Day 21, individual animals
[9] = Day 33 vs Day 21, group Mean, n 10
[10] = Day 33 vs Day 21, individual animals
[11] = Day 41 vs Day 21, group Mean, n 10
[12] = Day 41 vs Day 21, individual animals
[13] = group mean, n=10, day block 1 of 3
[14] = group mean, n=10, day block 2 of 3
[15] = group mean, n=10, day block 3 of 3
[16] = individual animals, day block 1 of 3
[17] = individual animals, day block 2 of 3
[18] = individual animals, day block 3 of 3

Custirsen: anti-clusterin antisense oligonucleotide CAGCAGCAGAGTCTTCATCAT, phosphorothioate backbone, 2′-O-methoxyethyl at nucleotides 1-4 and 18-21, 5-methylcytosines at 1, 4, 19 (antisense e[5mC]*eA*eG*e[5mC]*dA*dG*dC*dA*dG*dA*dG*dT*dC*dT*dT*dC*dA*eT*e[5mC]*eA*eT; listed as Homo sapiens)
cancer condition of patients (renal cancer): improves | dose limiting toxicities, deaths, AEs leading to withdrawal [1]: No dose limiting toxicities, deaths, or adverse events (AEs) leading to withdrawal were reported | cancer condition of patients (bladder cancer): improves | efficacy, in words ([2]; Custirsen 30 mg/kg qdx5 then 40 mg/kg biwk, alone): very efficacious | effect of continuous treatment versus loading only ([2]; Custirsen with Velcade, maintained vs loading only): dose-dependent and results in better outcome versus loading only | Max BW (mean) reduction ([2]; TV-1011 alone 30 mg/kg ip qd*5, then 40 mg/kg biwk, day 28): −0.5% | % TGI [2, 4]: 67% | No. of CR [2, 4]: 0 | No. of PR [2, 4]: 1 | No. of TRD [2, 4]: 0 | No. og nTRD [2, 4]: 0 | Δ mean tumor volume, (mean ± se) [2, 4]: 574 ± 118 | % TGI ([2]; TV-1011 alone 30 mg/kg ip qd*5, then 40 mg/kg biwk, day 62, listed as TV-1011): 67*** % | volume [2, 5]: 129.3 | weight [2, 5]: 18.8 | volume [2, 6]: 107 and 113 and 116 and 119 and 123 and 128 and 131 and 138 and 147 and 172 | weight [2, 6]: 21.4 and 17.7 and 20.5 and 15.9 and 19.6 and 20.3 and 17.9 and 16.6 and 20.1 and 17.8 | % of baseline (weight) ([2]; Day 28, group Mean, n 10): 99.5% | volume ([2]; Day 28, group Mean, n 10): 158.1 | weight ([2]; Day 28, group Mean, n 10): 18.7 | % of baseline (weight) ([2]; Day 28, individual animals): 98.0% and 104.0% and 102.6% and 95.2% and 96.9% and 94.4% and 103.0% and 98.7% and 98.3% | volume ([2]; Day 28, individual animals): 78 and 127 and 114 and 149 and 180 and 204 (2×) and 159 and 175 and 193 | weight ([2]; Day 28, individual animals): 21.0 and 118.5 and 21.3 and 16.3 and 18.7 and 19.6 and 16.9 and 17.1 and 19.9 and 17.5 | Δ % (weight) [2, 7]: −0.5% | Δ weight [2, 7]: −0.1 | Δ % (weight) [2, 8]: −2.0% and 4.4% and 4.0% and 2.6% and −4.8% and −3.1% and 5.6% and 3.0% and −1.3% and −1.7% | Δ weight [2, 8]: −0.4 and 0.8 (2×) and 0.4 and −0.9 and −0.6 and −1.0 and 0.5 and −0.3 (2×) | % of baseline (weight) ([2]; Day 33, group Mean, n 10): 101.6% | volume ([2]; Day 33, group Mean, n 10): 147.0 | weight ([2]; Day 33, group Mean, n 10): 19.1 | % of baseline (weight) ([2]; Day 33, individual animals): 97.8% and 108.3% and 108.1% and 95.9% and 94.0% and 101.3% and 98.3% and 105.5% and 99.9% and 107.3% | volume ([2]; Day 33, individual animals): 132 and 131 and 120 and 116 and 167 and 157 and 100 and 154 and 206 and 186 | weight ([2]; Day 33, individual animals): 20.9 and 19.2 and 22.1 and 15.2 and 18.4 and 20.5 and 17.6 and 17.5 and 20.1 and 19.1 | Δ % (weight) [2, 9]: 1.6% | Δ weight [2, 9]: 0.3 | Δ % (weight) [2, 10]: −2.2% and 8.3% and 8.1% and −4.1% and −6.0% and 1.3% and −1.7% and 5.5% and −0.1% and 7.3% | Δ weight [2, 10]: −0.5 and 1.5 and 1.7 and −0.6 and −1.2 and 0.3 and −0.3 and 0.9 and 0.0 and 1.3 | % of baseline (weight) ([2]; Day 41, group Mean, n 10): 106.8% | volume ([2]; Day 41, group Mean, n 10): 184.3 | weight ([2]; Day 41, group Mean, n 10): 20.0 | % of baseline (weight) ([2]; Day 41, individual animals): 101.4% and 112.9% and 111.2% and 108.4% and 102.9% and 102.3% and 105.9% and 112.3% and 106.7% and 103.9% | volume ([2]; Day 41, individual animals): 76 and 144 and 140 and 139 and 336 and 249 and 152 and 185 and 223 and 200 | weight ([2]; Day 41, individual animals): 21.7 and 20.0 and 22.8 and 17.2 and 20.2 and 20.7 and 18.9 and 18.7 and 21.5 and 18.5 | Δ % (weight) [2, 11]: 6.8% | Δ weight [2, 11]: 1.2 | Δ % (weight) [2, 12]: 1.4% and 12.9% and 11.2% and 8.4% and 2.9% and 2.3% and 5.9% and 6.7% and 3.9% | Δ weight [2, 12]: 0.3 and 2.3 (2×) and 1.3 (2×) and 0.6 and 0.5 and 1.1 and 2.0 and 0.7 | % of baseline (weight) [2, 13]: 113.8% | volume [2, 13]: 344.4 | Δ % (weight) [2, 13]: 13.8% | Δ weight [2, 13]: 2.5 | weight ([2]; group mean, n=10, day block 1 of 3 (day head not shown)): 21.3 | % of baseline (weight) [2, 14]: 109.2% | volume [2, 14]: 476.6 | weight [2, 14]: 20.4 | Δ % (weight) [2, 14]: 9.2% | Δ weight [2, 14]: 1.7 | % of baseline (weight) [2, 15]: 111.5% | volume [2, 15]: 702.9 | weight [2, 15]: 20.9 | Δ % (weight) [2, 15]: 11.5% | Δ weight [2, 15]: 2.1 | % of baseline (weight) [2, 16]: 108.5% and 116.7% and 112.9% and 120.7% and 110.1% and 107.6% and 114.4% and 123.3% and 115.7% and 108.4% | volume [2, 16]: 101 and 360 and 268 and 267 and 556 and 581 and 211 and 257 and 451 and 392 | Δ % (weight) [2, 16]: 8.5% and 16.7% and 12.9% and 20.7% and 10.1% and 7.6% and 14.4% and 23.3% and 15.7% and 8.4% | Δ weight [2, 16]: 1.8 and 3.0 and 2.6 (2×) and 3.3 and 2.0 and 1.5 (2×) and 3.9 and 3.2 | weight ([2]; individual animals, day block 1 of 3 (day head not shown)): 23.2 and 20.6 and 23.1 and 19.1 and 21.6 and 21.8 and 20.5 (2×) and 23.3 and 19.3 | % of baseline (weight) [2, 17]: 103.3% and 116.7% and 109.7% and 122.9% and 103.1% and 104.0% and 106.1% and 114.0% and 108.4% and 103.7% | volume [2, 17]: 106 and 638 (2×) and 463 and 399 and 767 and 663 and 257 and 246 and 588 | weight [2, 17]: 22.1 and 20.7 and 22.4 and 19.5 and 20.2 and 21.1 and 19.0 (2×) and 21.8 and 18.4 | Δ % (weight) [2, 17]: 3.3% and 16.7% and 9.7% and 22.9% and 3.1% and 4.0% and 6.1% and 14.0% and 8.4% and 3.7% | Δ weight [2, 17]: 0.7 (2×) and 3.0 and 2.0 and 3.6 and 0.6 and 0.8 and 1.1 and 2.3 and 1.7 | % of baseline (weight) [2, 18]: 105.9% and 121.8% and 111.4% and 118.7% and 106.2% and 107.1% and 106.8% and 119.0% and 112.4% and 106.3% | volume [2, 18]: 92 and 955 and 891 and 568 and 1324 and 804 and 379 and 273 and 1001 and 742 | weight [2, 18]: 22.7 and 21.5 and 22.8 and 18.8 and 20.8 and 21.7 and 19.1 and 19.8 and 22.6 and 18.9 | Δ % (weight) [2, 18]: 5.9% and 21.8% and 11.4% and 18.7% and 6.2% and 7.1% and 6.8% and 19.0% and 12.4% and 6.3% | Δ weight [2, 18]: 1.3 and 3.9 and 2.3 and 3.0 and 1.2 (2×) and 1.4 and 3.2 and 2.5 and 1.1 | incidence of the most common adverse events (fatigue, chills, nausea, pyrexia, etc.) [3]: more than 20 % of the patients | occurrence of grade 3/4 renal toxicity [3]: rare
